Source: PMC6199744, “Development of Chemical Proteomics for the Folateome and Analysis of the Kinetoplastid Folateome” (ACS Infectious Diseases, 2018)
Like-named read-outs stand apart in the source and are kept apart here.

What was measured:
Format in all cases: binding
[1] = target: T1, HeLa cell extract proteins (Homo sapiens, UniProt Q99623)
T1 construct: endogenous in cells; host or cells: HeLa cell extract

[2] = target: T2, HeLa cell extract proteins (Homo sapiens, UniProt Q03519)
T2 construct: endogenous in cells; host or cells: HeLa cell extract
T2 sequence (Q03519 1-686): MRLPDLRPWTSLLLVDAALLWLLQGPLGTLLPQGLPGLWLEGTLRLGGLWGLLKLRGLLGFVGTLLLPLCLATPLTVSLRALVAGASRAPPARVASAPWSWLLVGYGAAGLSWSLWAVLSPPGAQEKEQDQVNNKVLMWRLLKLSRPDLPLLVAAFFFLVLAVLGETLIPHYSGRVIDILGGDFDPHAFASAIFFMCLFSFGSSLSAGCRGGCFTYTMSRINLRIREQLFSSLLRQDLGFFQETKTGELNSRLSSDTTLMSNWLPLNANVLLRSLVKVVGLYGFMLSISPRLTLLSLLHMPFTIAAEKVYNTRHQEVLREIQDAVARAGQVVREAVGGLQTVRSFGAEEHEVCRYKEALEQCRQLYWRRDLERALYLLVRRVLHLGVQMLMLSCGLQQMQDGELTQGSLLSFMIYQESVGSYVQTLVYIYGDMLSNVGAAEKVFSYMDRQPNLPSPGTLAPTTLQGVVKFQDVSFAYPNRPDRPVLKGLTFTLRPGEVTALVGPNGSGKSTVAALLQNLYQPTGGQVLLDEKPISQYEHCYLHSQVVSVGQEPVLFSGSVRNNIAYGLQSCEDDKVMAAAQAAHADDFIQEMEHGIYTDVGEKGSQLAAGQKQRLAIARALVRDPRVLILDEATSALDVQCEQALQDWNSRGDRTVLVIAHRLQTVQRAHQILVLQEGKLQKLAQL

[3] = target: T3, HeLa cell extract proteins (Homo sapiens, UniProt P52948)
T3 construct: endogenous in cells; host or cells: HeLa cell extract
T3 sequence (P52948 whole entry): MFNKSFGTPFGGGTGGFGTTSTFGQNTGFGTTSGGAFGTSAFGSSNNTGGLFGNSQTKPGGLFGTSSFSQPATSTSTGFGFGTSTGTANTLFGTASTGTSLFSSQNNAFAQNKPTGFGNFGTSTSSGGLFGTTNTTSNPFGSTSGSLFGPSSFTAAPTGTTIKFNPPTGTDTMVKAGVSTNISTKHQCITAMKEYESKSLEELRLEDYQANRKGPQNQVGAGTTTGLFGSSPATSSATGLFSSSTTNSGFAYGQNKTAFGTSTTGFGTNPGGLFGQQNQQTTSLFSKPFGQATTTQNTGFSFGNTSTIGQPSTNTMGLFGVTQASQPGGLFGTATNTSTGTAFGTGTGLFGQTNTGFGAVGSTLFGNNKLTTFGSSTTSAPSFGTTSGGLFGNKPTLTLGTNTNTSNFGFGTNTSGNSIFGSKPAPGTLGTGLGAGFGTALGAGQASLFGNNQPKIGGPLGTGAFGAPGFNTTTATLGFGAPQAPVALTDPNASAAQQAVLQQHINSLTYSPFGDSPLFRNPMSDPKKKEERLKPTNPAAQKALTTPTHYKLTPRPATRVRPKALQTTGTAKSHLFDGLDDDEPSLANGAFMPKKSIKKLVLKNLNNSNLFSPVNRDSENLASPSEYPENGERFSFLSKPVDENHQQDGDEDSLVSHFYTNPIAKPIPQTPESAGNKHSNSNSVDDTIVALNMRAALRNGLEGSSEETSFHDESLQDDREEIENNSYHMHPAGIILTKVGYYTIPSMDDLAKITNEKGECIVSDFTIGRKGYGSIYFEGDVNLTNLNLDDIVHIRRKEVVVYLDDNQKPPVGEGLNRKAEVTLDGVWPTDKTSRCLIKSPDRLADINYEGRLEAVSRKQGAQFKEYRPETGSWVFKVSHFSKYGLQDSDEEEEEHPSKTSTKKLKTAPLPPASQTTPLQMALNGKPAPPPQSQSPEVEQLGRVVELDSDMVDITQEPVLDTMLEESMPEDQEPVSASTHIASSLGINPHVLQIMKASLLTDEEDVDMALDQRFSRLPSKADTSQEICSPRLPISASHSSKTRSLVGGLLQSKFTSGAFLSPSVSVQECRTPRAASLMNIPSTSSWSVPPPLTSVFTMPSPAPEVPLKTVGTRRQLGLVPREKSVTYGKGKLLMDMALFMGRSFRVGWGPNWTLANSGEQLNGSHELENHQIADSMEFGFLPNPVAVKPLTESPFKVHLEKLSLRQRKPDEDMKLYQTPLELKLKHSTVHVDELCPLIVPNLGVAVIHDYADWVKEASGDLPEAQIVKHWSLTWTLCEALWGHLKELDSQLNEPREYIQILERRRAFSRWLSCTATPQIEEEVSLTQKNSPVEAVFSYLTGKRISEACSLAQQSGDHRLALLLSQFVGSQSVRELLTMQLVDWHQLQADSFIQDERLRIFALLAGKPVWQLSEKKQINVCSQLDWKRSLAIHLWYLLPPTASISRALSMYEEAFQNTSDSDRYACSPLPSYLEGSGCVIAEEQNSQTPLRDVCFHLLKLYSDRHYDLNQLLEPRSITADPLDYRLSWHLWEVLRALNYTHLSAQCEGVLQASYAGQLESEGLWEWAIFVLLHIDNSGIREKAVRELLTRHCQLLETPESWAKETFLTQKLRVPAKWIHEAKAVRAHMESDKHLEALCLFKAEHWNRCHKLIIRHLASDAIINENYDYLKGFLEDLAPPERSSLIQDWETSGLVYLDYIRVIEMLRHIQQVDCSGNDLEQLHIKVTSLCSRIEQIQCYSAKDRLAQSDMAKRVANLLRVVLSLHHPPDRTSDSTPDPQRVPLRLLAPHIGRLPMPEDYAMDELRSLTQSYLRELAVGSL

[4] = target: T4, HeLa cell extract proteins (Homo sapiens, UniProt Q9Y244)
T4 construct: endogenous in cells; host or cells: HeLa cell extract
T4 sequence (Q9Y244 1-141): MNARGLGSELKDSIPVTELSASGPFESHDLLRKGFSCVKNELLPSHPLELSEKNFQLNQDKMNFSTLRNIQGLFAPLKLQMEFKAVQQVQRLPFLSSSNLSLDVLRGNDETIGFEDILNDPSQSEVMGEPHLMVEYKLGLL

[5] = target: T5, HeLa cell extract proteins (Homo sapiens, UniProt Q99720)
T5 construct: endogenous in cells; host or cells: HeLa cell extract
T5 sequence (Q99720 whole entry): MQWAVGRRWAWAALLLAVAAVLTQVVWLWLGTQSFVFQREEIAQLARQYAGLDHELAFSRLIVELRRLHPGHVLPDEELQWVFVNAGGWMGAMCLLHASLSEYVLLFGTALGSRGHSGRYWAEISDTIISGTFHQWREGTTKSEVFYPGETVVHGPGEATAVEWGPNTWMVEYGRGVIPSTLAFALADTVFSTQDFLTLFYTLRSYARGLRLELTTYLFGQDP

[6] = target: T6, HeLa cell extract proteins (Homo sapiens, UniProt Q8IXB1)
T6 construct: endogenous in cells; host or cells: HeLa cell extract
T6 sequence (Q8IXB1 33-793): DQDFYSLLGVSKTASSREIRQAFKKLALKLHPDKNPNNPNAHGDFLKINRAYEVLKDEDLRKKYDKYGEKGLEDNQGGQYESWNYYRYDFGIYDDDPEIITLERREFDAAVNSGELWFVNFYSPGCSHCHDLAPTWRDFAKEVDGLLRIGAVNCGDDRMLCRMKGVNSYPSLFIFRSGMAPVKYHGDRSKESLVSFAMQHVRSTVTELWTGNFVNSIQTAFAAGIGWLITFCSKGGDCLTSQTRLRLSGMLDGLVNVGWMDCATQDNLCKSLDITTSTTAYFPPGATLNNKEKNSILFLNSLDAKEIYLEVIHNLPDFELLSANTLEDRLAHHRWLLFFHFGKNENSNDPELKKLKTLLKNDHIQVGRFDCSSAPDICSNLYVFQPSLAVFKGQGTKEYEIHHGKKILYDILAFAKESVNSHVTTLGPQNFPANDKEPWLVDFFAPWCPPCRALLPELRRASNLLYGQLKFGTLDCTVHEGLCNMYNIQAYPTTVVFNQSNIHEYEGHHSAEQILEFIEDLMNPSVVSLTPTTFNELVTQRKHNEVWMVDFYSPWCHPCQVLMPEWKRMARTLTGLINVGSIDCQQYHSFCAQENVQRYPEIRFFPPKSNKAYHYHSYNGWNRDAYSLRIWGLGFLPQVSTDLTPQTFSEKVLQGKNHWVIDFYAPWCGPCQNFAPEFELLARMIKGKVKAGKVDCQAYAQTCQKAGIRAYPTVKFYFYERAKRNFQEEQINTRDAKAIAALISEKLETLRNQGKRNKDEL

[7] = target: T7, HeLa cell extract proteins (Homo sapiens, UniProt Q99832)
T7 construct: endogenous in cells; host or cells: HeLa cell extract
T7 sequence (Q99832 1-543): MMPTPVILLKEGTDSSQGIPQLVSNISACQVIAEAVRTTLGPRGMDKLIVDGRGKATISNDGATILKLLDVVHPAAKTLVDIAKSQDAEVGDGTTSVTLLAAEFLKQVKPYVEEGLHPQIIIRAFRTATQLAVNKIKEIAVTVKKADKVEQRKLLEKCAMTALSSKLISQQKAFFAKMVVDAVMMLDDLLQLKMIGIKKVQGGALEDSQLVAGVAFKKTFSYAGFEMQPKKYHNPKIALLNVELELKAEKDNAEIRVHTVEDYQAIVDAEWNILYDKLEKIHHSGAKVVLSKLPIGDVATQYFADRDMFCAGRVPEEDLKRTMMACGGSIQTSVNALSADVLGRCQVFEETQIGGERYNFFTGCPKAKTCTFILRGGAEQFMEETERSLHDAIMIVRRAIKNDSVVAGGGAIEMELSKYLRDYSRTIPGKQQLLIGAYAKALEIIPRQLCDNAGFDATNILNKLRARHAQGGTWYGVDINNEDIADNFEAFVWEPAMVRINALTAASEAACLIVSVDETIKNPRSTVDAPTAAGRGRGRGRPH

[8] = target: T8, HeLa cell extract proteins (Homo sapiens, UniProt P17987)
T8 construct: endogenous in cells; host or cells: HeLa cell extract
T8 sequence (P17987 whole entry): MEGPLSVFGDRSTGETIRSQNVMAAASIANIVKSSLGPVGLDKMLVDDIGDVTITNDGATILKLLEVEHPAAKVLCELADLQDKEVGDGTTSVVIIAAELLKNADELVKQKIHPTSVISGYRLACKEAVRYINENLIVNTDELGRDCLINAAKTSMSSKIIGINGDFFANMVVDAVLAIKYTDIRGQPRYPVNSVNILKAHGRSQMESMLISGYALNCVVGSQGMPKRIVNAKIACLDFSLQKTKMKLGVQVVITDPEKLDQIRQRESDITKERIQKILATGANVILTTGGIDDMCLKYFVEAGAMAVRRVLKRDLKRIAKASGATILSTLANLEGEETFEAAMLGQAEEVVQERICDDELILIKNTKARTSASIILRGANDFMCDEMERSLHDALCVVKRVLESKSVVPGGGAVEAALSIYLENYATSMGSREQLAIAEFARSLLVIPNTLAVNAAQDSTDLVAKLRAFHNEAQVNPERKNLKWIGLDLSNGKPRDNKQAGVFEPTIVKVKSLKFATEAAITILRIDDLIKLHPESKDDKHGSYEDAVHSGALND

T1 sequence (Q99623 whole entry): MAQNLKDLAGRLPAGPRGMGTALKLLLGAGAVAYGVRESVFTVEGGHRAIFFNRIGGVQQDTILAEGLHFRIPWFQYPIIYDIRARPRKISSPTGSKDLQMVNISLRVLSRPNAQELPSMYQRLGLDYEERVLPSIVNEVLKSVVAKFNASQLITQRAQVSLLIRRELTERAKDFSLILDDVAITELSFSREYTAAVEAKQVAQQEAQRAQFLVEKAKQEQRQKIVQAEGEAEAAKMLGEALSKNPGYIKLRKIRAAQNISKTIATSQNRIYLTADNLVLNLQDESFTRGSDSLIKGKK

SMILES: Nc1nc2cccc(-c3ccccc3)c2n1Cc1ccc(Cl)c(Cl)c1 [compound 3]
- fold changes relative to vehicle control ([1]; HeLa, protein PHB2): 1.04
- fold changes relative to vehicle control ([2]; captured protein TAP2, HeLa): 1.06
- fold changes relative to vehicle control ([3]; captured protein NUP98, HeLa): 1.06
- fold changes relative to vehicle control ([4]; captured protein POMP, HeLa): 0.86
- fold changes relative to vehicle control ([5]; HeLa, protein SIGMAR1): 1.1
- fold changes relative to vehicle control ([6]; HeLa, protein DNAJC10): 1.04
- fold changes relative to vehicle control ([7]; protein CCT7, HeLa): 0.98
- fold changes relative to vehicle control ([8]; protein TCP1, HeLa): 1.09

SMILES: CCCCCCOc1ccc(Cc2cnc(N)nc2N)cc1 [compound 1]
- fold changes relative to vehicle control ([1]; HeLa, protein PHB2): 0.95
- fold changes relative to vehicle control ([2]; captured protein TAP2, HeLa): 1.01
- fold changes relative to vehicle control ([3]; captured protein NUP98, HeLa): 1.05
- fold changes relative to vehicle control ([4]; captured protein POMP, HeLa): 0.66
- fold changes relative to vehicle control ([5]; HeLa, protein SIGMAR1): 0.99
- fold changes relative to vehicle control ([6]; HeLa, protein DNAJC10): 0.89
- fold changes relative to vehicle control ([7]; protein CCT7, HeLa): 1.08
- fold changes relative to vehicle control ([8]; protein TCP1, HeLa): 1.22

SMILES: NCCCNc1ccc(C(=O)NC(CCC(=O)O)C(=O)O)cc1 (centres unmarked) [compound 7]
- fold changes relative to vehicle control ([1]; protein PHB2, HeLa): 1
- fold changes relative to vehicle control ([2]; HeLa, captured protein TAP2): 1.09
- fold changes relative to vehicle control ([3]; HeLa, protein NUP98): 1.05
- fold changes relative to vehicle control ([4]; protein POMP, HeLa): 0.85
- fold changes relative to vehicle control ([5]; HeLa, protein SIGMAR1): 1.05
- fold changes relative to vehicle control ([6]; HeLa, protein DNAJC10): 0.94
- fold changes relative to vehicle control ([7]; HeLa, protein CCT7): 1.11
- fold changes relative to vehicle control ([8]; HeLa, protein TCP1): 1.07

SMILES: CCCCCCOc1cccc(Cc2cnc(N)nc2N)c1 [compound 2]
- fold changes relative to vehicle control ([1]; HeLa, protein PHB2): 0.91
- fold changes relative to vehicle control ([2]; captured protein TAP2, HeLa): 0.98
- fold changes relative to vehicle control ([3]; captured protein NUP98, HeLa): 1.11
- fold changes relative to vehicle control ([4]; captured protein POMP, HeLa): 0.89
- fold changes relative to vehicle control ([5]; HeLa, protein SIGMAR1): 0.99
- fold changes relative to vehicle control ([6]; HeLa, protein DNAJC10): 0.85
- fold changes relative to vehicle control ([7]; protein CCT7, HeLa): 1.62
- fold changes relative to vehicle control ([8]; protein TCP1, HeLa): 1.65

SMILES: NCCOCCOCC(=O)Nc1nc2ncc(CNc3ccc(C(=O)NC(CCC(=O)O)C(=O)O)cc3)nc2c(=O)[nH]1 (centres unmarked) [compound 6]
- fold changes relative to vehicle control ([1]; protein PHB2, HeLa): 0.95
- fold changes relative to vehicle control ([2]; HeLa, captured protein TAP2): 1.18
- fold changes relative to vehicle control ([3]; HeLa, protein NUP98): 1.21
- fold changes relative to vehicle control ([4]; protein POMP, HeLa): 0.86
- fold changes relative to vehicle control ([5]; HeLa, protein SIGMAR1): 0.96
- fold changes relative to vehicle control ([6]; HeLa, protein DNAJC10): 0.89
- fold changes relative to vehicle control ([7]; HeLa, protein CCT7): 1.2
- fold changes relative to vehicle control ([8]; HeLa, protein TCP1): 1.32

SMILES: Nc1nc2[nH]cc(CCc3ccc(C(=O)N[C@@H](CCC(=O)O)C(=O)O)cc3)c2c(=O)[nH]1 [PTX, pemetrexed]
- fold changes relative to vehicle control [1]: 0.86
- fold changes relative to vehicle control [2]: 0.89
- fold changes relative to vehicle control [3]: 1
- fold changes relative to vehicle control [4]: 0.83
- fold changes relative to vehicle control [5]: 0.99
- fold changes relative to vehicle control [6]: 0.91
- fold changes relative to vehicle control [7]: 1.01
- fold changes relative to vehicle control [8]: 1.08

SMILES: Nc1nc2c(c(=O)[nH]1)N(C=O)C(CNc1ccc(C(=O)N[C@@H](CCC(=O)O)C(=O)O)cc1)CN2 (some centres unmarked) [LEU, leucovorin]
- fold changes relative to vehicle control ([1]; protein PHB2, HeLa): 0.85
- fold changes relative to vehicle control ([2]; HeLa, captured protein TAP2): 1.11
- fold changes relative to vehicle control ([3]; HeLa, protein NUP98): 0.93
- fold changes relative to vehicle control ([4]; protein POMP, HeLa): 0.72
- fold changes relative to vehicle control ([5]; HeLa, protein SIGMAR1): 1.04
- fold changes relative to vehicle control ([6]; HeLa, protein DNAJC10): 0.89
- fold changes relative to vehicle control ([7]; HeLa, protein CCT7): 1.01
- fold changes relative to vehicle control ([8]; HeLa, protein TCP1): 1.04
